“And” between values parts separate entries of the source, which are not always exact repeats. Equal entries are not always repeated.
System: female mice (C57BLKS/J-m +/+ Lepr<db> (db/db))
Assay: Oral glucose tolerance test (blood glucose and blood lactic acid levels)
Type: in vivo
Conditions: subcutaneous, AUC up to 2 hours vs solvent group; for Blood glucose reduction rate (%): 30 min before oral glucose 3 g/kg; for Blood lactic acid level increase rate (%): oral glucose tolerance test
Protocol: Measurement of blood glucose reduction rate and blood lactic acid levels by the aforementioned oral glucose tolerance test may be carried out by a publicly known method, and preferred methods are described below. Specifically, 11- to 17-week-old female mice (C57BLKS/J-m +/+ Lepr (db/db)) are starved for 18-24 hours. A group of five or six mice is used for the test. Blood is sampled from the tail for measurement of the blood glucose levels and blood lactic acid levels before treatment as controls. After sampling, the biguanide derivative is dissolved in phosphate-buffered physiological saline at a suitable concentration and subcutaneously administered at a dose of 5 ml/kg. As controls are prepared mice administered only the solvent. Glucose is then administered orally at a dose of 3 g/6 ml/kg at 30 minutes after administration of the compound or solvent as an oral glucose tolerance test. Blood is sampled from the tail for measurement of the blood glucose levels and the blood lactic acid levels 30 minutes, 1 hour and 2 hours after glucose administration. The blood glucose levels are measured using a New Blood Sugar Test (Roche Diagnostics) or a Glucose CII-Test Wako (Wako Pure Chemical Industries, Ltd.). The blood lactic acid levels are measured using an “Asuka Sigma” (Sigma Diagnostics).
The blood glucose reduction rate and the blood lactic acid level increase rate are calculated according to the following formulas. Blood glucose reduction rate (%)=[(AUC for blood glucose increase level of solvent-administered group−AUC for blood glucose increase level of compound-administered group)/AUC for blood glucose increase level of solvent-administered group]×100
The blood lactic acid level increase rate is calculated according to the following formula. Blood lactic acid level increase rate (%)=[(AUC for blood lactic acid level of compound-administered group−AUC for blood lactic acid level of solvent-administered group)/AUC for blood lactic acid level of solvent-administered group]×100
Eleven- to seventeen-week-old female mice (C57BLKS/J-m +/+ Lepr (db/db)) were starved for 18-24 hours, and a group of six mice was used for the test. Blood was sampled from the tail for measurement of the blood glucose levels and blood lactic acid levels before treatment. […] As a control, the solvent alone was subcutaneously administered to mice similarly.
Glucose was then administered orally at a dose of 3 g/6 ml/kg at 30 minutes after administration of the compound or solvent as an oral glucose tolerance test. Blood was sampled from the tail for measurement of the blood glucose levels and blood lactic acid levels 30 minutes, 1 hour and 2 hours after glucose administration. The blood glucose levels were measured using a New Blood Sugar Test (Roche Diagnostics) or a Glucose CII-Test Wako (Wako Pure Chemical Industries, Ltd.). The blood lactic acid levels were measured using an “Asuka Sigma” (Sigma Diagnostics).

| Structure (SMILES) | Blood glucose reduction rate (%) (dosage 37.5 mg/kg) | Blood lactic acid level increase rate (%) (dosage 37.5 mg/kg) | Blood glucose reduction rate (%) (dosage 75 mg/kg) | Blood lactic acid level increase rate (%) (dosage 75 mg/kg) | Blood glucose reduction rate (%) (dosage 50 mg/kg) | Blood glucose reduction rate (%) (dosage 200 mg/kg) |
| --- | --- | --- | --- | --- | --- | --- |
| [H]/N=C(/N)N/C(=N/[H])NCCc1ccccc1 [Phenformin] | 39.5% and 72.7% | 46.4% and 83.1% | 64.5% and 78.0% and 60.8% and 61.4% and 72.8% and 69.6% | 93.6% and 151.6% and 94.7% and 120.8% and 141.1% and 114.8% |  |  |
| N=C(N)NC(=N)NCc1ccoc1 [1-[(Furan-3-yl)methyl]biguanide, 1-[(furan-3-yl)methyl]biguanide] |  |  | 65.5% | 9.7% | 40.3% |  |
| CN(C)C(=N)N=C(N)N [Metformin] |  |  |  |  |  | 56.0% and 41.8% |
